# Assays:
# Assay in all cases: KinomeScan panel screen
# Type in all cases: binding
# AKT1 = target: T1, AKT1 (Homo sapiens, UniProt P31749); settings: AKT1, 100 nM; read-out: Percent Control
# T1 construct: purchased DiscoveRx KINOMEscan (TRKA and CSF1R IC50 enzymes from Invitrogen)
# Procedure: (§1) In addition, NPA101.3, at a concentration of 100 nM, was subjected to a kinome scan against a 96-kinase panel representing major kinome clusters (Table S2). The compound featured good selectivity, displaying strong binding activity (>90% bound) for only seven additional kinases [CSF1R (colony stimulating factor 1 receptor), FRK (fyn-related Src family tyrosine kinase), HCK (HCK proto-oncogene, Src family tyrosine kinase), LYN (lyn proto-oncogene, Src family tyrosine kinase), MKNK2 (MAPK-interacting serine/threonine kinase 2), TRKA (neurotrophic receptor tyrosine kinase 1), and TRKC (neurotrophic receptor tyrosine kinase 3)] and weak binding (>10–35% bound) for six other kinases (Table S2 and Figure S2). It is important to note that the measurement of binding affinity, which is based on control ligand displacement (Kd), is more sensitive than the in vitro kinase assay. Among the seven kinases with >90% binding, TRKA and CSF1R were selected for an in vitro kinase assay.
# (§2) Supplementary Table S2: NPA101.3 KinomeScan Panel screen.
# (§3) NPA101.3 was screened at a single concentration of 100 nM. Hits values lower than
# (§4) 10% of control were considered strongly positive.
# (§5) DiscoveRx Gene Entrez Gene Percent Compound
# (§6) Symbol Symbol Control Concentration
# ALK = target: T2, ALK (Homo sapiens, UniProt Q9UM73); settings: 100 nM, read-out: Percent Control
# T2 construct: purchased DiscoveRx KINOMEscan (TRKA and CSF1R IC50 enzymes from Invitrogen)
# Procedure: as §1, §2, §3, §4, §5, §6
# BTK = target: T3, BTK (Homo sapiens, UniProt Q06187); settings: 100 nM, read-out: Percent Control
# T3 construct: purchased DiscoveRx KINOMEscan (TRKA and CSF1R IC50 enzymes from Invitrogen)
# Procedure: as §1, §2, §3, §4, §5, §6
# CAMK1 = target: T4, CAMK1 (Homo sapiens, UniProt Q14012); settings: CAMK1, 100 nM; read-out: Percent Control
# T4 construct: purchased DiscoveRx KINOMEscan (TRKA and CSF1R IC50 enzymes from Invitrogen)
# T4 sequence (Q14012 whole entry): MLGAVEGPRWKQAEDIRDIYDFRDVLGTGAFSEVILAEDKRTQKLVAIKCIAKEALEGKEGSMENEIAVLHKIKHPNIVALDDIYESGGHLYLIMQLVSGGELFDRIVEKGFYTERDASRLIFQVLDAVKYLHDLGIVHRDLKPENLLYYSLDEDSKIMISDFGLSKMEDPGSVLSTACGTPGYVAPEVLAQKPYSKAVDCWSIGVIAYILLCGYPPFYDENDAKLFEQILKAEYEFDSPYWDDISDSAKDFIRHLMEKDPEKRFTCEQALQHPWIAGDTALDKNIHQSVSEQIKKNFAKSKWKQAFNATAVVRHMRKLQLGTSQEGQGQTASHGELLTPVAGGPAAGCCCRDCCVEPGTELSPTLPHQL
# Procedure: as §1, §2, §3, §4, §5, §6
# CDK5 = target: T5, CDK5 (Homo sapiens, UniProt Q00535); settings: CDK5, 100 nM; read-out: Percent Control
# T5 construct: purchased DiscoveRx KINOMEscan (TRKA and CSF1R IC50 enzymes from Invitrogen)
# T5 sequence (Q00535 whole entry): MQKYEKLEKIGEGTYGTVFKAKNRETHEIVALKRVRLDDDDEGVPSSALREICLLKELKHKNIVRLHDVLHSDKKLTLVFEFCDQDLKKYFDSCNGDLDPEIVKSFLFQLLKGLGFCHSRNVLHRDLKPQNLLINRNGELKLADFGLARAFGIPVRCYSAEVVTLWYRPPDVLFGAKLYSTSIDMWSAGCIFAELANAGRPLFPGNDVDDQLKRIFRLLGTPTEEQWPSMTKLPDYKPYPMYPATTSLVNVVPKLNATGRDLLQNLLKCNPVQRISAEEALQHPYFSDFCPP
# Procedure: as §1, §2, §3, §4, §5, §6
# CLK1 = target: T6, CLK1 (Homo sapiens, UniProt P49759); settings: CLK1, 100 nM; read-out: Percent Control
# T6 construct: purchased DiscoveRx KINOMEscan (TRKA and CSF1R IC50 enzymes from Invitrogen)
# Procedure: as §1, §2, §3, §4, §5, §6
# CSF1R = target: T7, CSF1R (Homo sapiens, UniProt P07333); settings: 100 nM
# T7 construct: purchased Invitrogen
# T7 sequence (P07333 20-972): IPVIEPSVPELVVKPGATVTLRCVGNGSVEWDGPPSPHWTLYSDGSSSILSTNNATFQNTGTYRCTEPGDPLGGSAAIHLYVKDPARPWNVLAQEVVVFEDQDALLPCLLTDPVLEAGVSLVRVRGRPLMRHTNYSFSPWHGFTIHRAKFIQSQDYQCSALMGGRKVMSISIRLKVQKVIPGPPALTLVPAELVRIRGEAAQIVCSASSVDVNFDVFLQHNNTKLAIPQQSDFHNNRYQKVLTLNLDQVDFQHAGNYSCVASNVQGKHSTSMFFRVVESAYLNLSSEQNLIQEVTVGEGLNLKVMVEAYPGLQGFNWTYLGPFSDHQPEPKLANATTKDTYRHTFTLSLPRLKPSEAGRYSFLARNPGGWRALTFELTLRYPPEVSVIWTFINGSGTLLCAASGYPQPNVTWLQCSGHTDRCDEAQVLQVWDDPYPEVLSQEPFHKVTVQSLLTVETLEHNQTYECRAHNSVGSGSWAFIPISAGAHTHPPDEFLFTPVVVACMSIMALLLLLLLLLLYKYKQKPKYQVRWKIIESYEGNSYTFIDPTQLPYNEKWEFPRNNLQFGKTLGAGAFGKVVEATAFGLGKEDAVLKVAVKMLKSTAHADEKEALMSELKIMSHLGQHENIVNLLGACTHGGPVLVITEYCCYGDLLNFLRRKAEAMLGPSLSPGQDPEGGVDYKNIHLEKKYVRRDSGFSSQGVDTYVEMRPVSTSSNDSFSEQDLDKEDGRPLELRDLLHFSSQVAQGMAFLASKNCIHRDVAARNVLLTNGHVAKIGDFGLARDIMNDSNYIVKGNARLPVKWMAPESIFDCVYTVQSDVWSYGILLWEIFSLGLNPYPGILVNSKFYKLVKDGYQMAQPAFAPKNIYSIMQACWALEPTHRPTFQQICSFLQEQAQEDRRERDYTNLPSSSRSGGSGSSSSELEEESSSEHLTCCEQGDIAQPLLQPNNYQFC
# Procedure: as §1, §2, §3, §4, §5, §6
# CSNK1A1 = target: T8, CSNK1A1 (Homo sapiens, UniProt P48729); settings: CSNK1A1, 100 nM; read-out: Percent Control
# T8 construct: purchased DiscoveRx KINOMEscan (TRKA and CSF1R IC50 enzymes from Invitrogen)
# T8 sequence (P48729 whole entry): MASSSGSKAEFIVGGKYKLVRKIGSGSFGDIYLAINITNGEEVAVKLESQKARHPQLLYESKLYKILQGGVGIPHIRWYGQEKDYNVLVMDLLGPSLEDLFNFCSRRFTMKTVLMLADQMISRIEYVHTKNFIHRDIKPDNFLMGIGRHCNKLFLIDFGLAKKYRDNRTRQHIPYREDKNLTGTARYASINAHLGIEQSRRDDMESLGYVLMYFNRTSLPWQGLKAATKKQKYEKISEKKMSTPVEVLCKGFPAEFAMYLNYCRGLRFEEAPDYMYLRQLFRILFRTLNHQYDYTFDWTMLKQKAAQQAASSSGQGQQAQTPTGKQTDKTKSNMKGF
# Procedure: as §1, §2, §3, §4, §5, §6
# DLK = target: T9, DLK (Homo sapiens, UniProt Q12852); settings: 100 nM, read-out: Percent Control
# T9 construct: purchased DiscoveRx KINOMEscan (TRKA and CSF1R IC50 enzymes from Invitrogen)
# T9 sequence (Q12852 whole entry): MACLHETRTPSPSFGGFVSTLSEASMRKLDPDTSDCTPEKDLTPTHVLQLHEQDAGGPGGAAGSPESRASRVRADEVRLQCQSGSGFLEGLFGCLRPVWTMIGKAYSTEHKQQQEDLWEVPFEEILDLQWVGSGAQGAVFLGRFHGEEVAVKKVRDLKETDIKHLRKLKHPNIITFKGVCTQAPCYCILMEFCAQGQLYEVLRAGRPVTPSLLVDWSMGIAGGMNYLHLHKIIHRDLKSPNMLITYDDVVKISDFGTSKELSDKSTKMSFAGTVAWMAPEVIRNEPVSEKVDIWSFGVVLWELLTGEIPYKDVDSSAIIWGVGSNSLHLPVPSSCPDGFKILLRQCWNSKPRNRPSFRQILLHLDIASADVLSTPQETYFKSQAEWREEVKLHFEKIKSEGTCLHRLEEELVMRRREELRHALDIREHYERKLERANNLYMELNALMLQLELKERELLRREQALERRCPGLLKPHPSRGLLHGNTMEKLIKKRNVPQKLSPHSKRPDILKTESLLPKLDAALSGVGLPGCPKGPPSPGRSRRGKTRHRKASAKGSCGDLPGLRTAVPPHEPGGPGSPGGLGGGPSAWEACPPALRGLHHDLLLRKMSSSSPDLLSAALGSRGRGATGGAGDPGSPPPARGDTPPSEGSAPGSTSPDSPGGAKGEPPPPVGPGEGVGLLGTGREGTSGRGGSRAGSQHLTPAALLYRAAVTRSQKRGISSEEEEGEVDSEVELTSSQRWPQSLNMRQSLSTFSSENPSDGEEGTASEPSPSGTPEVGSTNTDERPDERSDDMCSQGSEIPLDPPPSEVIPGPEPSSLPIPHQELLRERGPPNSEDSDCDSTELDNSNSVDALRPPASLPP
# Procedure: as §1, §2, §3, §4, §5, §6
# EIF2AK1 = target: T10, EIF2AK1 (Homo sapiens, UniProt Q9BQI3); settings: EIF2AK1, 100 nM; read-out: Percent Control
# T10 construct: purchased DiscoveRx KINOMEscan (TRKA and CSF1R IC50 enzymes from Invitrogen)
# Procedure: as §1, §2, §3, §4, §5, §6
# EPHA1 = target: T11, EPHA1 (Homo sapiens, UniProt P21709); settings: EPHA1, 100 nM; read-out: Percent Control
# T11 construct: purchased DiscoveRx KINOMEscan (TRKA and CSF1R IC50 enzymes from Invitrogen)
# Procedure: as §1, §2, §3, §4, §5, §6
# ERK1 = target: T12, ERK1 (Homo sapiens, UniProt P27361); settings: ERK1, 100 nM; read-out: Percent Control
# T12 construct: purchased DiscoveRx KINOMEscan (TRKA and CSF1R IC50 enzymes from Invitrogen)
# Procedure: as §1, §2, §3, §4, §5, §6
# FAK = target: T13, FAK (Homo sapiens, UniProt Q05397); settings: 100 nM, read-out: Percent Control
# T13 construct: purchased DiscoveRx KINOMEscan (TRKA and CSF1R IC50 enzymes from Invitrogen)
# Procedure: as §1, §2, §3, §4, §5, §6
# ITK = target: T14, ITK (Homo sapiens, UniProt Q08881); settings: 100 nM, read-out: Percent Control
# T14 construct: purchased DiscoveRx KINOMEscan (TRKA and CSF1R IC50 enzymes from Invitrogen)
# Procedure: as §1, §2, §3, §4, §5, §6
# [1] = target: T15, JAK2(JH1domain-catalytic) (Homo sapiens, UniProt O60674); settings: 100 nM, read-out: Percent Control
# T15 construct: JAK2(JH1domain-catalytic); purchased DiscoveRx KINOMEscan (TRKA and CSF1R IC50 enzymes from Invitrogen)
# T15 sequence (O60674 840-1132 limits assumed): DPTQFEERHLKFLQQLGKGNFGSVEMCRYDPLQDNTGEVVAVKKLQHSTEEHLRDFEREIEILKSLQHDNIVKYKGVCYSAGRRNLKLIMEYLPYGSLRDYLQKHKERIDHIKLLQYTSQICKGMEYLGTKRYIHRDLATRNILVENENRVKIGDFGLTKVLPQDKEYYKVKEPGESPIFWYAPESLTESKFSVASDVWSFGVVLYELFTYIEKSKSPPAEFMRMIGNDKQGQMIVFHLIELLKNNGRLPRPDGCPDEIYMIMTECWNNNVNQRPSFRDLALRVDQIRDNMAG
# Procedure: as §1, §2, §3, §4, §5, §6
# LRRK2 = target: T16, LRRK2 (Homo sapiens, UniProt Q5S007); settings: LRRK2, 100 nM; read-out: Percent Control
# T16 construct: purchased DiscoveRx KINOMEscan (TRKA and CSF1R IC50 enzymes from Invitrogen)
# Procedure: as §1, §2, §3, §4, §5, §6
# MELK = target: T17, MELK (Homo sapiens, UniProt Q14680); settings: 100 nM, read-out: Percent Control
# T17 construct: purchased DiscoveRx KINOMEscan (TRKA and CSF1R IC50 enzymes from Invitrogen)
# Procedure: as §1, §2, §3, §4, §5, §6
# MKNK2 = target: T18, MKNK2 (Homo sapiens, UniProt Q9HBH9)
# T18 construct: purchased DiscoveRx KINOMEscan (TRKA and CSF1R IC50 enzymes from Invitrogen)
# T18 sequence (Q9HBH9 whole entry): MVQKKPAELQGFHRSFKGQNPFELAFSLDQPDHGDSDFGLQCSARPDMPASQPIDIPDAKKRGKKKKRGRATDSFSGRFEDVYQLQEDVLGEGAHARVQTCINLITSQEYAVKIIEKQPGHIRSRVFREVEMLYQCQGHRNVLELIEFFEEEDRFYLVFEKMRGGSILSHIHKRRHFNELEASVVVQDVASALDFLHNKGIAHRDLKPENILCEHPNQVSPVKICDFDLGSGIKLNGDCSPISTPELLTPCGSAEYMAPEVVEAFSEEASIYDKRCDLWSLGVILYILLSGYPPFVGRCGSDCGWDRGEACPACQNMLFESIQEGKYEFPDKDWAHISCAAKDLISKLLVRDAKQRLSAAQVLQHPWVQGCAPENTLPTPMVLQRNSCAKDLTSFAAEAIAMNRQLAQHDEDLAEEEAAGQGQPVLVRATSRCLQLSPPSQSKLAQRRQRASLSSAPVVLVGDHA
# Procedure: as §1, §2, §3, §4, §5, §6
# MYLK4 = target: T19, MYLK4 (Homo sapiens, UniProt Q86YV6); settings: MYLK4, 100 nM; read-out: Percent Control
# T19 construct: purchased DiscoveRx KINOMEscan (TRKA and CSF1R IC50 enzymes from Invitrogen)
# T19 sequence (Q86YV6 whole entry): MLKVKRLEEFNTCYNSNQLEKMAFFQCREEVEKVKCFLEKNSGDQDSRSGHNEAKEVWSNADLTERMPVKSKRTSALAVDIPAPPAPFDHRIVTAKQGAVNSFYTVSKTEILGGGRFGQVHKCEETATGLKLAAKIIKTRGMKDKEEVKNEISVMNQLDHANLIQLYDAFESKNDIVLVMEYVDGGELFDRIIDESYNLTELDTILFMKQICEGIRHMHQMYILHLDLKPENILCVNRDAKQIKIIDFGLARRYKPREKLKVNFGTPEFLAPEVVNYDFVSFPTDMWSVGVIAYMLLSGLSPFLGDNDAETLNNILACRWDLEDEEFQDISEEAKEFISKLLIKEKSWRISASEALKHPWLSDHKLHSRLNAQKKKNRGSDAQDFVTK
# Procedure: as §1, §2, §3, §4, §5, §6
# NEK2 = target: T20, NEK2 (Homo sapiens, UniProt P51955); settings: NEK2, 100 nM; read-out: Percent Control
# T20 construct: purchased DiscoveRx KINOMEscan (TRKA and CSF1R IC50 enzymes from Invitrogen)
# T20 sequence (P51955 whole entry): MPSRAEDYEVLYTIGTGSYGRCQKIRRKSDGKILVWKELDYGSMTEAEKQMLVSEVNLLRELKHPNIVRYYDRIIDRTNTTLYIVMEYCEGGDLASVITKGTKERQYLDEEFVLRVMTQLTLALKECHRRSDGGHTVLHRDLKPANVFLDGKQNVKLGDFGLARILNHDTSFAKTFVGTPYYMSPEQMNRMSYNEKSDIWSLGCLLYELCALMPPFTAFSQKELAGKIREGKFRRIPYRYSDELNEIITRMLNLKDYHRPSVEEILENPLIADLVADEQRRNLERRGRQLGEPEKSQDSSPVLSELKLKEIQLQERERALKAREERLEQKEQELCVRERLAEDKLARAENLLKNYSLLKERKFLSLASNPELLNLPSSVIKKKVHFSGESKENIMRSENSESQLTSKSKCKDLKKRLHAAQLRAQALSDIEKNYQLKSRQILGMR
# Procedure: as §1, §2, §3, §4, §5, §6
# PAK1 = target: T21, PAK1 (Homo sapiens, UniProt Q13153); settings: PAK1, 100 nM; read-out: Percent Control
# T21 construct: purchased DiscoveRx KINOMEscan (TRKA and CSF1R IC50 enzymes from Invitrogen)
# Procedure: as §1, §2, §3, §4, §5, §6
# PDPK1 = target: T22, PDPK1 (Homo sapiens, UniProt O15530); settings: PDPK1, 100 nM; read-out: Percent Control
# T22 construct: purchased DiscoveRx KINOMEscan (TRKA and CSF1R IC50 enzymes from Invitrogen)
# Procedure: as §1, §2, §3, §4, §5, §6
# PIM2 = target: T23, PIM2 (Homo sapiens, UniProt Q9P1W9); settings: PIM2, 100 nM; read-out: Percent Control
# T23 construct: purchased DiscoveRx KINOMEscan (TRKA and CSF1R IC50 enzymes from Invitrogen)
# T23 sequence (Q9P1W9 whole entry): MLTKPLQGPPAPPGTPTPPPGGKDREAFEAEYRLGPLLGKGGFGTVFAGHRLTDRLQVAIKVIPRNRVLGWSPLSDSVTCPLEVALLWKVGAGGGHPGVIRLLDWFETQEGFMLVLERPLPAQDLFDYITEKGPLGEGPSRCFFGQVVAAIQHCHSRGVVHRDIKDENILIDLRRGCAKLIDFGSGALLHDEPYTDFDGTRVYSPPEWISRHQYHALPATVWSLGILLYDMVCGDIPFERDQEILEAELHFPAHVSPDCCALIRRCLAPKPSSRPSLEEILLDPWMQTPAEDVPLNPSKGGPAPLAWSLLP
# Procedure: as §1, §2, §3, §4, §5, §6
# PLK4 = target: T24, PLK4 (Homo sapiens, UniProt O00444); settings: PLK4, 100 nM; read-out: Percent Control
# T24 construct: purchased DiscoveRx KINOMEscan (TRKA and CSF1R IC50 enzymes from Invitrogen)
# Procedure: as §1, §2, §3, §4, §5, §6
# PRKD2 = target: T25, PRKD2 (Homo sapiens, UniProt Q9BZL6); settings: PRKD2, 100 nM; read-out: Percent Control
# T25 construct: purchased DiscoveRx KINOMEscan (TRKA and CSF1R IC50 enzymes from Invitrogen)
# Procedure: as §1, §2, §3, §4, §5, §6
# STK33 = target: T26, STK33 (Homo sapiens, UniProt Q9BYT3); settings: STK33, 100 nM; read-out: Percent Control
# T26 construct: purchased DiscoveRx KINOMEscan (TRKA and CSF1R IC50 enzymes from Invitrogen)
# Procedure: as §1, §2, §3, §4, §5, §6
# TAK1 = target: T27, TAK1 (Homo sapiens, UniProt O43318); settings: TAK1, 100 nM; read-out: Percent Control
# T27 construct: purchased DiscoveRx KINOMEscan (TRKA and CSF1R IC50 enzymes from Invitrogen)
# Procedure: as §1, §2, §3, §4, §5, §6
# TIE2 = target: T28, TIE2 (Homo sapiens, UniProt Q02763); settings: TIE2, 100 nM; read-out: Percent Control
# T28 construct: purchased DiscoveRx KINOMEscan (TRKA and CSF1R IC50 enzymes from Invitrogen)
# Procedure: as §1, §2, §3, §4, §5, §6
# TXK = target: T29, TXK (Homo sapiens, UniProt P42681); settings: 100 nM, read-out: Percent Control
# T29 construct: purchased DiscoverX (outsourced KINOMEscan)
# Procedure: as §1, §2, §3, §4, §5, §6
# WNK1 = target: T30, WNK1 (Homo sapiens, UniProt Q9H4A3); settings: WNK1, 100 nM; read-out: Percent Control
# T30 construct: purchased DiscoverX (outsourced KINOMEscan)
# Procedure: as §1, §2, §3, §4, §5, §6
compound,measurement,setting,value
CC(C)(C)c1cc(NC(=O)Cc2ccc(-n3cnc4cc(-c5ccc(S(C)(=O)=O)cc5)ccc43)cc2)no1 [NPA101.3],remaining binding at 0.1 µM,AKT1,100%
same,remaining binding at 0.1 µM,ALK,93%
same,remaining binding at 0.1 µM,BTK,93%
same,remaining binding at 0.1 µM,CAMK1,95%
same,remaining binding at 0.1 µM,CDK5,97%
same,remaining binding at 0.1 µM,CLK1,82%
same,binding (% bound),CSF1R,> 90 % bound
same,remaining binding at 0.1 µM,"CSF1R; CSF1R, read-out: Percent Control",0.05%
same,remaining binding at 0.1 µM,CSNK1A1,69%
same,remaining binding at 0.1 µM,DLK,100%
same,remaining binding at 0.1 µM,EIF2AK1,99%
same,remaining binding at 0.1 µM,EPHA1,39%
same,remaining binding at 0.1 µM,ERK1,100%
same,remaining binding at 0.1 µM,FAK,86%
same,remaining binding at 0.1 µM,ITK,72%
same,remaining binding at 0.1 µM,[1],100%
same,remaining binding at 0.1 µM,LRRK2,100%
same,remaining binding at 0.1 µM,MELK,83%
same,binding (% bound),MKNK2; 100 nM,> 90 % bound
same,remaining binding at 0.1 µM,"MKNK2; MKNK2, 100 nM, read-out: Percent Control",0.15%
same,remaining binding at 0.1 µM,MYLK4,89%
same,remaining binding at 0.1 µM,NEK2,100%
same,remaining binding at 0.1 µM,PAK1,100%
same,remaining binding at 0.1 µM,PDPK1,96%
same,remaining binding at 0.1 µM,PIM2,94%
same,remaining binding at 0.1 µM,PLK4,100%
same,remaining binding at 0.1 µM,PRKD2,100%
same,remaining binding at 0.1 µM,STK33,83%
same,remaining binding at 0.1 µM,TAK1,13%
same,remaining binding at 0.1 µM,TIE2,30%
same,remaining binding at 0.1 µM,TXK,85%
same,remaining binding at 0.1 µM,WNK1,93%

# Source: PMC7901654, “Bioisosteric Discovery of NPA101.3, a Second-Generation RET/VEGFR2 Inhibitor Optimized for Single-Agent Polypharmacology” (Journal of Medicinal Chemistry, 2020)
